From US20250320227A1, “MACROCYCLIC OREXIN RECEPTOR AGONISTS AND USES THEREOF” (Jazz Pharmaceuticals Ireland Limited, priority 2022, published 2025) come the findings set out here.

Molecules are shown by their SMILES. Bounds are passed on as bounds.

The target in this assay is T1, human recombinant OX2 (hOX2) receptors expressed in CHO cells (Homo sapiens, UniProt O43614).
T1 construct: host or cells: CHO cells (hOX2-CHO)
T1 sequence (O43614 1-444): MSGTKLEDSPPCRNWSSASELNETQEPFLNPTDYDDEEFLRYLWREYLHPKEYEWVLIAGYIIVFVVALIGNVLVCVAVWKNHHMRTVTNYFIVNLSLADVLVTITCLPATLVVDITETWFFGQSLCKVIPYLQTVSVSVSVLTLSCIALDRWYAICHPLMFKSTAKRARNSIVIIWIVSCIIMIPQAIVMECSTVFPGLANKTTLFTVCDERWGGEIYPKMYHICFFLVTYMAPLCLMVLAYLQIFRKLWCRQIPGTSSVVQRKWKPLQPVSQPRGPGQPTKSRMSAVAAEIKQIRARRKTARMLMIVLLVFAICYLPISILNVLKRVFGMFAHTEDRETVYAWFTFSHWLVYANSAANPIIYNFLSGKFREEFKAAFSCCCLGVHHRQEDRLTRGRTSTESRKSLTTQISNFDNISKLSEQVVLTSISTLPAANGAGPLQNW
The experiment in a line: IP-1 accumulation assay (IP-One HTRF) in hOX2-CHO cells. In kind it is cell-based. The following applies: 60 min incubation at 37° C., mean of at least two independent experiments, read-out: EC50_OX2R Category. A digest of the protocol:
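IP-1 HTRF (665/615 ratio) after 60 min compound exposure at 37 °C, 11-point dilution, 0.5% DMSO, LiCl-containing HEPES-buffered HBSS pH 7.4. Response expressed as percent of maximal OX-A effect; EC50 by four-parameter logistic fit, averaged over at least two independent experiments in duplicate.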
(In general: Time-resolved FRET reads energy transfer from a long-lived donor to a nearby acceptor.)
With `O=C1COCC2(CCCN3C(=O)COCc4ccccc4[C@H]4CC[C@H](CC4)OCC32)N1` (stereo partly drawn) [Example 55, Rel-(1′s,3S,17′R,20's)-9′,19′-dioxa-12′-azaspiro[morpholine-3,16′-tetracyclo[18.2.2.0^2,70.0^12,17]tetracosane]-2′(7′),3′,5′-triene-5,11′-dione], the EC50 was in the range of 1 to 10 µM. As to `O=C1CS[C@@]2(CCCN3C(=O)COc4ccccc4[C@H]4CC[C@H](CC4)OC[C@H]32)N1` (single isomer, unassigned) [Example 68a], the EC50 was 0.1 to 1 µM. The same measure for `Cc1cccc2c1[C@H]1CC[C@H](CC1)OC[C@H]1N(CCC[C@]13COCC(=O)N3)C(=O)CO2` (single isomer, unassigned) [Example 47b]: 1 to 10 µM; for `O=C1N[C@@]2(CCCN3C(=O)COc4ccccc4[C@H]4CC[C@H](CC4)OC[C@@H]32)CO1` (single isomer, unassigned) [Example 67b]: greater than 10 µM; for `O=C1COc2ccccc2[C@H]2CC[C@H](CC2)OC[C@@H]2N1CCC[C@@]21CO[C@](F)(C(F)(F)F)C(=O)N1` (relative stereo) [Example 71a, rel-(1′s,3S,16′R,19′s)-6 (R)-fluoro-6-(trifluoromethyl)-8′,18′-dioxa-11′-azaspiro[morpholine-3,15′-tetracyclo[17.2.2.0^2,70.0^11,16]tricosane]-2′(7′),3′,5′-triene-5,10′-dione]: less than 0.1 µM. Then `O=C1NC2(CCN3C(=O)CCOc4ccccc4[C@H]4CC[C@H](CC4)OCC32)COC1F` (relative stereo) [Example 8, rel-(1′s,3S,16′R,19′s)-6-fluoro-8′,18′-dioxa-12′-azaspiro[morpholine-3,15′-tetracyclo[17.2.2.0^2,70.0^12,16]tricosane]-2′(7′),3′,5′-triene-5,11′-dione], with less than 0.1 µM; and `Cc1ccnc2c1C1CCC(CC1)OCC1N(CCCC13COCC(=O)N3)C(=O)CO2` [Example 77a, (1′s,3S,16′R,19′s)-3′-methyl-8′,18′-dioxa-6′,11′-diazaspiro[morpholine-3,15′-tetracyclo[17.2.2.0^2,70.0^11,16]tricosane]-2′,4′,6′-triene-5,10′-dione], with less than 0.1 µM; and `C[C@@H]1C[C@]2(COCC(=O)N2)[C@H]2CO[C@H]3CC[C@H](CC3)c3ccc(F)cc3OCC(=O)N12` [Example 19b, (1′s,3R,12′R,15′S, 18′s)-5′-fluoro-12′-methyl-8′,17′-dioxa-11′-azaspiro[morpholine-3,14′-tetracyclo [16.2.2.0^2,^7.0^11,^15]docosane]-2′,4′,6′-triene-5,10′-dione], with greater than 10 µM. The same measure for `C[C@@H]1C[C@@]2(COCC(=O)N2)[C@@H]2CO[C@H]3CC[C@H](CC3)c3cc(Cl)ccc3OCC(=O)N12` (single isomer, unassigned) [Example 21a]: 0.1 to 1 µM; for `O=C1CCC[C@@]2(CCCN3C(=O)COc4ccccc4[C@H]4CC[C@H](CC4)OC[C@H]32)N1` (single isomer, unassigned) [Example 58a]: less than 0.1 µM; for `O=C1COC[C@]2(CCCN3C(=O)CCOc4ccccc4[C@H]4CC[C@H](CC4)OC[C@@H]32)N1` (single isomer, unassigned) [Example 33b]: 0.1 to 1 µM. Consider `O=C1COC[C@@]2(CCCN3C(=O)CCCCOc4cccc(n4)[C@H]4CC[C@H](CC4)OC[C@H]32)N1` (single isomer, unassigned) [Example 76b], for which the EC50 was less than 0.1 µM. The same measure for `O=C1COC[C@]2(CCCN3C(=O)OCCCOc4cccc(c4)[C@H]4CC[C@H](CC4)OC[C@@H]32)N1` (single isomer, unassigned) [Example 54b]: 1 to 10 µM; for `O=C1COC[C@@]2(CCN3C(=O)CCOc4ccccc4[C@H]4CC[C@H](CC4)OC[C@H]32)N1` (single isomer, unassigned) [Example 1a]: less than 0.1 µM.
